In patent US12173007B2, “Imidazopyridazine IL-17 inhibitor compounds” (Janssen Pharmaceutica NV, priority 2021, dated 2024):

Tests used:
[1] = target: IL-17A(FLAG-Tagged): IL-17RA(His-Tagged) binding (Homo sapiens, UniProt Q16552, K93Q); experiment: IL-17A(FLAG-tagged):IL-17RA(His-tagged) binding disruption Eu-HTRF assay, Protocol 2; conditions: FLAG-IL-17A 1 nM; average if tested more than once
Excerpt: IL-17A(FLAG-Tagged): IL-17RA(His-Tagged) Binding Disruption Eu-HTRF Assay
An antibody directed against the FLAG tag of IL-17A (SEQ ID NO: 1) is labeled with the HTRF donor chromophore (Europium-cryptate). IL-17A is present as a dimer that is “locked into” this quaternary structure due to the formation of loop-spanning […] disulfide bridges. The construct of IL-17RA used in the assay excludes the […] portion of the receptor and is fused to a C-terminal 10×His tag (SEQ ID NO:2). An antibody directed against the His tag of the IL-17RA chimera is labeled with the HTRF acceptor chromophore (“D2”). The fluorescence-resonance energy transfer (FRET) depends on the vicinity of the donor chromophore to the acceptor, and interruption of the binding between the IL-17A and IL-17RA causes the reduction/loss of FRET. Therefore, this assay allows to evaluate the compound effect on the binding IL-17A and IL-17RA by monitoring the fluorescence intensity of donor vs acceptor. The assay was run using either Protocol 1 or Protocol 2 as described below.
Protocol 2. 40 nl of 2-fold serial diluted compound solution for total 22 dilution points is added into each well of a 1536-well, white, low-volume, non-binding plate (Greiner #782904), then 2 μl of FLAG tagged IL-17A at 2×final concentration (1 nM) in solution of PBS+0.01% Triton-X100 is added to each well. The assay plate is briefly centrifuged then incubated for 1 h at rt. A mixed solution is prepared containing 2×5 nM 10HIS×IL-17RA, 2×2.5 nM Eu-anti-FLAG (CISBIO), 2×5 nM D2-anti-HIS (CISBIO) in PBS+0.01% Triton-X100+200 mM Potassium Fluoride (Sigma 60238) and 2 μl of mix is added to each well of the assay plate. The plate is briefly centrifuged then incubated for 2 h at rt. The HTRF intensities at the wavelength of donor (615 nm) and acceptor (665 nm) are measured using BMG Pherastar. The ratio between intensities at two wavelengths is calculated and plotted against the compound concentration and the data is fitted to a one-site competition model to yield IC50 of the compound.

[2] = test system: IL-17A-induced G-CSF production in human normal keratinocyte (NHK); experiment: NHK assay: IL-17A-induced G-CSF production in normal human keratinocytes; type: cell-based; conditions: Homo sapiens, Keratinocyte, 24 h, IL-17A 5 ng/mL, G-CSF by HTRF, average if tested more than once
In short: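 IC50 derives from G-CSF in supernatants, quantified by HTRF from a standard curve, with CellTiter-Glo viability compared to DMSO control. Before a 24 h, 37°C culture of normal human keratinocytes at 3000–4000 cells/well, compound dilutions were preincubated 1 h at rt with human IL-17A (5 ng/mL final), with 0.2% DMSO and 5% FBS.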

Sequence of UniProt Q16552 (Q16552 with tags, fused parts or gaps K93Q): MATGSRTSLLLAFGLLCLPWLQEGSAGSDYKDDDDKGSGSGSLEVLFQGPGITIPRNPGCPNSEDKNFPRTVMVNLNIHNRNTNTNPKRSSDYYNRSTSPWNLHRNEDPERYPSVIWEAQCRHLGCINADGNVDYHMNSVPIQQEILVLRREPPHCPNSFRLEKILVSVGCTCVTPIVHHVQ

SMILES	IC50 [1] [µM]	IC50 [2] [µM]
COC[C@H](c1cnn2cc(C(NC(=O)c3nonc3C)C3C[C@H]4CC[C@H]4C3)nc2c1)N1CC(F)(F)CNC1=O (single isomer, unassigned) [Example 132, N-((1S*)-((1R,5S)-Bicyclo[3.2.0]heptan-3-yl)(7-((S)-1-(5,5-difluoro-2-oxotetrahydropyrimidin-1(2H)-yl)-2-methoxyethyl)imidazo[1,2-b]pyridazin-2-yl)methyl)-4-methyl-1,2,5-oxadiazole-3-carboxamide]	< 0.05	< 0.05
[2H]C1([2H])NC(=O)N([C@H](COC2CC2)c2cnn3cc([C@@H](NC(=O)c4nonc4CC)C4CCC(F)(F)CC4)nc3c2)C([2H])([2H])C1(F)F [Example 70, N—((S)-(7-((S)-2-Cyclopropoxy-1-(5,5-difluoro-2-oxotetrahydropyrimidin-1(2H)-yl-4,4,6,6-d4)ethyl)imidazo[1,2-b]pyridazin-2-yl)(4,4-difluorocyclohexyl)methyl)-4-ethyl-1,2,5-oxadiazole-3-carboxamide]	< 0.05	< 0.05
[2H]C1([2H])NC(=O)N([C@H](COC2CC2)c2cnn3cc([C@@H](NC(=O)c4ccnn4C(C)C)C4CCC(F)(F)CC4)nc3c2)C([2H])([2H])C1(F)F [Example 71, N—((S)-(7-((S)-2-Cyclopropoxy-1-(5,5-difluoro-2-oxotetrahydropyrimidin-1(2H)-yl-4,4,6,6-d4)ethyl)imidazo[1,2-b]pyridazin-2-yl)(4,4-difluorocyclohexyl)methyl)-1-isopropyl-1H-pyrazole-5-carboxamide]	< 0.05	< 0.05
[2H]C1([2H])NC(=O)N([C@H](COC)c2cnn3cc([C@@H](NC(=O)c4nonc4C4CC4)C4CCC(F)(F)CC4)nc3c2)C([2H])([2H])C1(F)F [Example 72, 4-Cyclopropyl-N—((S)-(7-((S)-1-(5,5-difluoro-2-oxotetrahydropyrimidin-1(2H)-yl-4,4,6,6-d4)-2-methoxyethyl)imidazo[1,2-b]pyridazin-2-yl)(4,4-difluorocyclohexyl)methyl)-1,2,5-oxadiazole-3-carboxamide]	< 0.05	< 0.05
COc1nonc1C(=O)N[C@H](c1cn2ncc([C@@H](COC3CC3)N3CC(F)(F)CNC3=O)cc2n1)C1CCC(F)(F)CC1 [Example 77, N—((S)-(7-((S)-2-Cyclopropoxy-1-(5,5-difluoro-2-oxotetrahydropyrimidin-1(2H)-yl)ethyl)imidazo[1,2-b]pyridazin-2-yl)(4,4-difluorocyclohexyl)methyl)-4-methoxy-1,2,5-oxadiazole-3-carboxamide]	< 0.05	< 0.05
O=C(N[C@H](c1cn2ncc([C@@H](COC3CC3)N3CC(F)(F)CNC3=O)cc2n1)C1CCC(F)(F)CC1)c1nonc1C(F)F [Example 78, N—((S)-(7-((S)-2-Cyclopropoxy-1-(5,5-difluoro-2-oxotetrahydropyrimidin-1(2H)-yl)ethyl)imidazo[1,2-b]pyridazin-2-yl)(4,4-difluorocyclohexyl)methyl)-4-(difluoromethyl)-1,2,5-oxadiazole-3-carboxamide]	< 0.05	< 0.05
COC[C@H](c1cnn2cc([C@@H](NC(=O)c3nonc3C(F)F)C3CCC(F)(F)CC3)nc2c1)N1CC(F)(F)CNC1=O [Example 79, N—((S)-(7-((S)-1-(5,5-Difluoro-2-oxotetrahydropyrimidin-1(2H)-yl)-2-methoxyethyl)imidazo[1,2-b]pyridazin-2-yl)(4,4-difluorocyclohexyl)methyl)-4-(difluoromethyl)-1,2,5-oxadiazole-3-carboxamide]	< 0.05	< 0.05

Further lines, with some results ahead:

IC50 [1] [µM]	SMILES	IC50 [2] [µM]
< 0.05	Cc1nonc1C(=O)N[C@@H](CCC(C)(C)C(F)(F)F)c1cn2ncc([C@@H](COC3CC3)N3CC(F)(F)CNC3=O)cc2n1 [Example 56, N—((S)-1-(7-((S)-2-Cyclopropoxy-1-(5,5-difluoro-2-oxotetrahydropyrimidin-1(2H)-yl)ethyl)imidazo[1,2-b]pyridazin-2-yl)-5,5,5-trifluoro-4,4-dimethylpentyl)-4-methyl-1,2,5-oxadiazole-3-carboxamide]	< 0.05
< 0.05	[2H]C1([2H])NC(=O)N([C@H](COC2CC2)c2cnn3cc([C@@H](NC(=O)c4nonc4OC)C4CCC(F)(F)CC4)nc3c2)C([2H])([2H])C1(F)F [Example 69, N—((S)-(7-((S)-2-Cyclopropoxy-1-(5,5-difluoro-2-oxotetrahydropyrimidin-1(2H)-yl-4,4,6,6-d4)ethyl)imidazo[1,2-b]pyridazin-2-yl)(4,4-difluorocyclohexyl)methyl)-4-methoxy-1,2,5-oxadiazole-3-carboxamide]	< 0.05
< 0.05	[2H]C1([2H])NC(=O)N([C@H](COC)c2cnn3cc([C@H](CCC(C)(C)C(F)(F)F)NC(=O)c4nonc4OC)nc3c2)C([2H])([2H])C1(F)F [Example 73, N—((S)-1-(7-((S)-1-(5,5-Difluoro-2-oxotetrahydropyrimidin-1(2H)-yl-4,4,6,6-d4)-2-methoxyethyl)imidazo[1,2-b]pyridazin-2-yl)-5,5,5-trifluoro-4,4-dimethylpentyl)-4-methoxy-1,2,5-oxadiazole-3-carboxamide]	< 0.05
< 0.05	[2H]C1([2H])NC(=O)N([C@H](COC)c2cnn3cc([C@H](CCC(C)(C)C(F)(F)F)NC(=O)c4nonc4C)nc3c2)C([2H])([2H])C1(F)F [Example 74, N—((S)-1-(7-((S)-1-(5,5-Difluoro-2-oxotetrahydropyrimidin-1(2H)-yl-4,4,6,6-d4)-2-methoxyethyl)imidazo[1,2-b]pyridazin-2-yl)-5,5,5-trifluoro-4,4-dimethylpentyl)-4-methyl-1,2,5-oxadiazole-3-carboxamide]	< 0.05
< 0.05	[2H]C1([2H])NC(=O)N([C@H](COC2CC2)c2cnn3cc([C@H](CCC(C)(C)C(F)(F)F)NC(=O)c4nonc4OC)nc3c2)C([2H])([2H])C1(F)F [Example 75, N—((S)-1-(7-((S)-2-Cyclopropoxy-1-(5,5-difluoro-2-oxotetrahydropyrimidin-1(2H)-yl-4,4,6,6-d4)ethyl)imidazo[1,2-b]pyridazin-2-yl)-5,5,5-trifluoro-4,4-dimethylpentyl)-4-methoxy-1,2,5-oxadiazole-3-carboxamide]	< 0.05
< 0.05	[2H]C1([2H])NC(=O)N([C@H](COC2CC2)c2cnn3cc([C@H](CCC(C)(C)C(F)(F)F)NC(=O)c4nonc4C)nc3c2)C([2H])([2H])C1(F)F [Example 76, N—((S)-1-(7-((S)-2-Cyclopropoxy-1-(5,5-difluoro-2-oxotetrahydropyrimidin-1(2H)-yl-4,4,6,6-d4)ethyl)imidazo[1,2-b]pyridazin-2-yl)-5,5,5-trifluoro-4,4-dimethylpentyl)-4-methyl-1,2,5-oxadiazole-3-carboxamide]	< 0.05
< 0.05	[2H]C1([2H])NC(=O)N([C@H](COC)c2cnn3cc([C@H](CCC(C)(C)C(F)(F)F)NC(=O)c4nonc4C4CC4)nc3c2)C([2H])([2H])C1(F)F [Example 80, 4-Cyclopropyl-N—((S)-1-(7-((S)-1-(5,5-difluoro-2-oxotetrahydropyrimidin-1(2H)-yl-4,4,6,6-d4)-2-methoxyethyl)imidazo[1,2-b]pyridazin-2-yl)-5,5,5-trifluoro-4,4-dimethylpentyl)-1,2,5-oxadiazole-3-carboxamide]	< 0.05
< 0.05	[2H]C1([2H])NC(=O)N([C@H](COC)c2cnn3cc([C@H](CCC(C)(C)C(F)(F)F)NC(=O)c4nonc4C(F)F)nc3c2)C([2H])([2H])C1(F)F [Example 81, N—((S)-1-(7-((S)-1-(5,5-Difluoro-2-oxotetrahydropyrimidin-1(2H)-yl-4,4,6,6-d4)-2-methoxyethyl)imidazo[1,2-b]pyridazin-2-yl)-5,5,5-trifluoro-4,4-dimethylpentyl)-4-(difluoromethyl)-1,2,5-oxadiazole-3-carboxamide]	< 0.05
